Data from US10874108B2, “Anti-microbial compositions” (5D HEALTH PROTECTION GROUP LTD, priority 2016, dated 2020).
Where two headings read alike, the source gives them in different places.

Experiments:
P. aeruginosa biofilms [1] = assay: CDC bioreactor biofilm LR/kill, EDTA compounds at 100 ppm silver; format: cell-based; conditions: 100 ppm of silver, exposed 24 hours
Protocol: (§1) Microbial cultures were exposed to compounds for 24 hours. Compounds were diluted according to 100 ppm of silver. Biofilms were formed using the CDC bioreactor. Samples were performed in triplicate.

S. aureus biofilms [2] = assay: as above; format: cell-based; conditions: 100 ppm of silver, exposed 24 hours
Protocol: as §1

cells [3] = assay: Indirect cytotoxicity, agar diffusion method
cells [4] = assay: Direct cytotoxicity, Neutral Red Uptake assay
[5] = Displacement of metals from EDTA complexes by physiological saline; format: physicochemical
Protocol: Adding saline to the suspension of Ag4(EDTA), the suspension quickly precipitated a solid (AgCl). The precipitate was filtered off, washed with deionized water 4 times; and then dried in a vacuum oven at 50° C. in a dark flask to avoid exposure to direct light.
The displacement experiment described above was repeated for compounds 1-4 to provide the percent of the displacement of silver, copper, zinc from the EDTA complexes by physiological saline.

[6] = tested on: P. aeruginosa 24-hour CDC biofilms; assay: Colonies after exposure of 24-hour CDC biofilms to EDTA compounds; format: cell-based
[7] = tested on: S. aureus 24-hour CDC biofilms; assay: as above; format: cell-based
cells [8] = tested on: cells
[9] = tested on: P. aeruginosa 24-hour biofilm
Protocol: (§2) Minimum inhibitory concentration (MIC), minimum biocidal concentration (MBC) and minimum biofilm eradication (MBEC) were determined. Values represent a percentage of the stock antimicrobial solution (8%).

[10] = tested on: S. aureus 24-hour biofilm
Protocol: as §2

P. aeruginosa biofilms [11] = conditions: 4%
Protocol: (§3) The Mean Log10 density of untreated controls was calculated (±standard deviation).

S. aureus biofilms [12] = conditions: 4%
Protocol: as §3

[13] = tested on: S. aureus MRSA BAA-43 biofilm; assay: MBEC model (ASTM E2799), liquid formulas; format: cell-based; conditions: 4%, treated 24 hours
Protocol: (§4) The MBEC model (ASTM E2799) was used to assess the anti-biofilm efficacy of the liquid formulas. Biofilms were grown on polystyrene pegs in the MBEC model for either 24 or 48 hours before treatment. Using the liquid form of the EDTA complexes 24- and 48-hour biofilms were tested (Table 20).
(§5) 24- and 48-hour biofilms were formed using MBEC plate method and treated for 24 hours. Technical replicates n=3. Log reduction (LR) values show±standard error (SE) of LR value.

[14] = tested on: P. aeruginosa NCTC 10662 biofilm; assay: MBEC model (ASTM E2799), liquid formulas; format: cell-based; conditions: 4%, treated 24 hours; for LR: hydrate
Protocol: as §4, §5

[15] = tested on: E. faecalis ATCC 29212 biofilm; assay: MBEC model (ASTM E2799), liquid formulas; format: cell-based; conditions: 4%, treated 24 hours
Protocol: as §4, §5

[16] = tested on: S. epidermidis ATCC 35984 biofilm; assay: MBEC model (ASTM E2799), liquid formulas; format: cell-based; conditions: 4%, treated 24 hours
Protocol: as §4, §5

[17] = tested on: S. aureus ATCC 29213 biofilm; assay: MBEC model (ASTM E2799), liquid formulas; format: cell-based; conditions: 4%, treated 24 hours
Protocol: as §4, §5

cells [18] = tested on: cells; remark: listed apart in the source
[19] = 24-Hour Biofilms, Treatment Time 1
[20] = 24-Hour Biofilms, Treatment Time 5
[21] = 24-Hour Biofilms, Treatment Time 15
[22] = 72-Hour Biofilms, Treatment Time 1
[23] = 72-Hour Biofilms, Treatment Time 5
[24] = 72-Hour Biofilms, Treatment Time 15

O=C([O-])CN(CCN(CC(=O)[O-])CC(=O)[O-])CC(=O)[O-].[Ag+].[Cu+2].[Na+] [Compound 1, AgCuNaEDTA]
Kill % (P. aeruginosa biofilms [1]): 99.99%
LR (P. aeruginosa biofilms [1]): 3.88 ± 0.15
LR (P. aeruginosa biofilms [1]; listed as Ag/Cu/NaEDTA): 3.5
Kill % (S. aureus biofilms [2]): 100%
Lysis Index (cells [3]; 25 ppm): 1
Zone Index (cells [3]; 25 ppm): 2
Lysis Index (cells [3]; 50 ppm): 1
Zone Index (cells [3]; 50 ppm): 3
Lysis Index (cells [3]; 100 ppm): 1
Zone Index (cells [3]; 100 ppm): 3
Interpretation (cells [4]; 25 ppm): Cytotoxic (if the percentage viability is less than 70% of the untreated control, then the substance is considered cytotoxic)
Percentage of Control/Percentage Viability (%) (cells [4]; 25 ppm): 51.54 ± 9.44%
Interpretation (cells [4]; 50 ppm): Cytotoxic (if the percentage viability is less than 70% of the untreated control, then the substance is considered cytotoxic)
Percentage of Control/Percentage Viability (%) (cells [4]; 50 ppm): 53.66 ± 9.48%
Interpretation (cells [4]; 100 ppm): Cytotoxic (if the percentage viability is less than 70% of the untreated control, then the substance is considered cytotoxic)
Percentage of Control/Percentage Viability (%) (cells [4]; 100 ppm): 52.57 ± 8.97%
Displacement (%) Copper [5]: 53.49 ± 5.56%
Displacement (%) Silver [5]: 81.37 ± 4.29%

O=C([O-])CN(CCN(CC(=O)[O-])CC(=O)[O-])CC(=O)[O-].[Ag+].[Ag+].[Cu+2] [Compound 2, Ag2CuEDTA]
Kill % (P. aeruginosa biofilms [1]): 99.95%
LR (P. aeruginosa biofilms [1]): 3.31 ± 0.01
Kill % (S. aureus biofilms [2]): 99.99%
LR (S. aureus biofilms [2]): 4.0 ± 0.20
Number of colonies detected [6]: 0 Cfu/ml
Lysis Index (cells [3]; 25 ppm): 1
Zone Index (cells [3]; 25 ppm): 2
Lysis Index (cells [3]; 50 ppm): 1
Zone Index (cells [3]; 50 ppm): 2
Lysis Index (cells [3]; 100 ppm): 1
Zone Index (cells [3]; 100 ppm): 2
Interpretation (cells [4]; 25 ppm): Non cytotoxic (if the percentage viability is less than 70% of the untreated control, then the substance is considered cytotoxic)
Percentage of Control/Percentage Viability (%) (cells [4]; 25 ppm): 72.21 ± 3.74%
Interpretation (cells [4]; 50 ppm): Non cytotoxic (if the percentage viability is less than 70% of the untreated control, then the substance is considered cytotoxic)
Percentage of Control/Percentage Viability (%) (cells [4]; 50 ppm): 72.01 ± 7.41%
Interpretation (cells [4]; 100 ppm): Non cytotoxic (if the percentage viability is less than 70% of the untreated control, then the substance is considered cytotoxic)
Percentage of Control/Percentage Viability (%) (cells [4]; 100 ppm): 72.09 ± 17.57%
Displacement (%) Copper [5]: 41.37 ± 6.92%
Displacement (%) Silver [5]: 77.99 ± 3.90%
Number of colonies detected [7]: 0 Cfu/ml

Oc1ccccc1 [Phenol]
Lysis Index (cells [8]): 3
Zone Index (cells [8]): 5

O=C([O-])CN(CCN(CC(=O)[O-])CC(=O)[O-])CC(=O)[O-].[Cu+2].[Na+].[Na+] [Cu—Na-EDTA, reference compound]
Number of colonies detected [6]: 0 Cfu/ml
Number of colonies detected [7]: 0 Cfu/ml

O.O=C([O-])CN(CCN(CC(=O)[O-])CC(=O)[O-])CC(=O)[O-].[Na+].[Na+].[Na+].[Na+] [Tetrasodium EDTA, ethylenediaminetetraacetic acid tetrasodium salt hydrate]
MBC ([9]; 1 min): 50 percentage of the stock antimicrobial solution (8%)
MIC ([9]; 1 min): 25 percentage of the stock antimicrobial solution (8%)
MBC ([9]; 30 min): 50 percentage of the stock antimicrobial solution (8%)
MIC ([9]; 30 min): 12.5 percentage of the stock antimicrobial solution (8%)
MBC ([9]; 1 h): 25 percentage of the stock antimicrobial solution (8%)
MBEC ([9]; 1 h): 6.25 percentage of the stock antimicrobial solution (8%)
MIC ([9]; 1 h): 25 percentage of the stock antimicrobial solution (8%)
MBC ([9]; 24 h): 6.25 percentage of the stock antimicrobial solution (8%)
MBEC ([9]; 24 h): 6.25 percentage of the stock antimicrobial solution (8%)
MIC ([9]; 24 h): 6.25 percentage of the stock antimicrobial solution (8%)
MBC ([10]; 1 min): 50 percentage of the stock antimicrobial solution (8%)
MIC ([10]; 1 min): 25 percentage of the stock antimicrobial solution (8%)
MBC ([10]; 30 min): 50 percentage of the stock antimicrobial solution (8%)
MIC ([10]; 30 min): 12.5 percentage of the stock antimicrobial solution (8%)
MBC ([10]; 1 h): 25 percentage of the stock antimicrobial solution (8%)
MBEC ([10]; 1 h): 6.25 percentage of the stock antimicrobial solution (8%)
MIC ([10]; 1 h): 25 percentage of the stock antimicrobial solution (8%)
MBC ([10]; 24 h): 6.25 percentage of the stock antimicrobial solution (8%)
MBEC ([10]; 24 h): 6.25 percentage of the stock antimicrobial solution (8%)
MIC ([10]; 24 h): 6.25 percentage of the stock antimicrobial solution (8%)
Kill % (P. aeruginosa biofilms [11]; [19]): 83.018%
LR (P. aeruginosa biofilms [11]; [19]): 0.77 ± 0.08
Kill % (P. aeruginosa biofilms [11]; [20]): 97.92%
LR (P. aeruginosa biofilms [11]; [20]): 1.68 ± 0.05
Kill % (P. aeruginosa biofilms [11]; [21]): 99.51%
LR (P. aeruginosa biofilms [11]; [21]): 2.31 ± 0.10
Kill % (P. aeruginosa biofilms [11]; [22]): 99.22%
LR (P. aeruginosa biofilms [11]; [22]): 2.10 ± 0.05
Kill % (P. aeruginosa biofilms [11]; [23]): 99.56%
LR (P. aeruginosa biofilms [11]; [23]): 2.35 ± 0.02
Kill % (P. aeruginosa biofilms [11]; [24]): 95.07%
LR (P. aeruginosa biofilms [11]; [24]): 1.31 ± 0.12
Kill % (S. aureus biofilms [12]; [19]): 97.41%
LR (S. aureus biofilms [12]; [19]): 1.59 ± 1.56
Kill % (S. aureus biofilms [12]; [20]): 59.90%
LR (S. aureus biofilms [12]; [20]): 0.40 ± 0.05
Kill % (S. aureus biofilms [12]; [21]): 80.51%
LR (S. aureus biofilms [12]; [21]): 0.71 ± 0.11
Kill % (S. aureus biofilms [12]; [22]): 54.09%
LR (S. aureus biofilms [12]; [22]): 0.34 ± 0.37
Kill % (S. aureus biofilms [12]; [23]): 79.86%
LR (S. aureus biofilms [12]; [23]): 0.70 ± 0.05
Kill % (S. aureus biofilms [12]; [24]): 80.25%
LR (S. aureus biofilms [12]; [24]): 0.70 ± 0.02
Kill % ([13]; 24-Hour Biofilm): 100%
LR ([13]; 24-Hour Biofilm): 5.40
Kill % ([13]; 48-Hour Biofilm): 100%
LR ([13]; 48-Hour Biofilm): 6.43
Kill % ([14]; 24-Hour Biofilm): 99.9998%
LR ([14]; 24-Hour Biofilm): 5.94±3.43
LR ([14]; 24-Hour Biofilm, listed as tEDTA): 5.94 ± 3.43
Kill % ([14]; 48-Hour Biofilm): 99.9999%
LR ([14]; 48-Hour Biofilm): 6.99±4.04
LR ([14]; 48-Hour Biofilm, listed as tEDTA): 6.99 ± 4.04
Kill % ([15]; 24-Hour Biofilm): 100%
LR ([15]; 24-Hour Biofilm): 6.35
Kill % ([15]; 48-Hour Biofilm): 100%
LR ([15]; 48-Hour Biofilm): 6.40
Kill % ([16]; 24-Hour Biofilm): 100%
LR ([16]; 24-Hour Biofilm): 6.09
Kill % ([16]; 48-Hour Biofilm): 100%
LR ([16]; 48-Hour Biofilm): 6.41
Kill % ([17]; 24-Hour Biofilm): 100%
LR ([17]; 24-Hour Biofilm): 6.44
Kill % ([17]; 48-Hour Biofilm): 100%
LR ([17]; 48-Hour Biofilm): 6.50

O=C([O-])CN(CCN(CC(=O)[O-])CC(=O)[O-])CC(=O)[O-].[Ag+].[Na+].[Zn+2] [Compound 3, AgZnNaEDTA]
Kill % (P. aeruginosa biofilms [1]): 99.97%
LR (P. aeruginosa biofilms [1]): 3.51 ± 0.04
LR (P. aeruginosa biofilms [1]; listed as Ag/Zn/NaEDTA): 3.5
Kill % (S. aureus biofilms [2]): 100%
Number of colonies detected [6]: 0 Cfu/ml
percentage viability (cells [18]): 46.46-63.08%
Lysis Index (cells [3]; 25 ppm): 1
Zone Index (cells [3]; 25 ppm): 2
Lysis Index (cells [3]; 50 ppm): 1
Zone Index (cells [3]; 50 ppm): 2
Lysis Index (cells [3]; 100 ppm): 1
Zone Index (cells [3]; 100 ppm): 3
Displacement (%) Silver [5]: 82.32 ± 5.63%
Displacement (%) Zinc [5]: 47.33 ± 13.29 %
Number of colonies detected [7]: 0 Cfu/ml
